The results in this text go back to patent US20010033864A1, “Low dose entecavir formulation and use” (priority 2000, published 2001).

In data set [1] the test system is hepatitis B virus. Put plainly: 24-week randomized, double-blind, lamivudine-controlled trial of safety and antiviral activity in chronic hepatitis B. In kind it is in vivo, human. The note with it: 24 weeks. How it is done: The safety and antiviral activity of three doses of entecavir (0.01 mg, 0.1 mg and 0.5 mg) given once daily for 24 weeks were studies in adults with chronic hepatitis B in a randomized, double-blind, lamivudine (100 mg QD) controlled trial.

For data set [2], the system named is hepatitis B virus. Put plainly: 28-day randomized, double-blind, placebo-controlled, dose-escalating trial of safety and antiviral activity in chronic hepatitis B. The note with it: for mean log reduction in hepatitis B virus DNA viral levels in the blood: human subjects with chronic HBV infection, day 28. The format is in vivo, human. On the procedure:
The safety and antiviral activity of entecavir given for 28 days to human subjects with chronic hepatitis B virus infection was studied in a randomized, double-blind, placebo-controlled, dose-escalating trial. […] The mean log reduction in hepatitis B virus DNA viral levels in the blood at day 28 were 2.21, 2.25, 2.81, and 2.42 for the 0.05, 0.1, 0.5 and 1.0 mg once daily doses of entecavir, respectively.

Regarding `C=C1C(CO)C(O)C[C@@H]1n1cnc2c(=O)[nH]c(N)nc21` (stereo partly drawn) [Entecavir, [1S-(1α,3α, 4β)]-2-amino-1,9-dihydro-9-[4-hydroxy-3-(hydroxymethyl)-2-methylenecyclopentyl]-6H-purin-6-one], the safety / tolerability result was “well tolerated” in data set [1] (all doses (0.01, 0.1, 0.5 mg once daily)) and “well tolerated” in data set [2] (0.05-1.0 mg once daily for 28 days, human subjects). The antiviral activity result in data set [1] (all three doses (0.01, 0.1, 0.5 mg once daily), adults with chronic hepatitis B) is “potent antiviral activity”; in data set [2] (all doses tested (0.05, 0.1, 0.5, 1.0 mg once daily), 28 days), “potent antiviral activity”. Besides, the “reductions in hepatitis B virus DNA viral levels in blood compared to lamivudine” value in data set [1] (two higher doses (0.1 mg and 0.5 mg once daily), vs lamivudine 100 mg QD) is recorded as “significantly greater reductions”. In addition, the “mean log reduction in hepatitis B virus DNA viral levels in the blood” value was found to be 2.21 log in data set [2] (0.05 mg once daily), 2.25 log in data set [2] (0.1 mg once daily), 2.81 log in data set [2] (0.5 mg once daily) and 2.42 log in data set [2] (1.0 mg once daily).
